Data on 59 molecules can be found in PubChem BioAssay AID687005 (Broad Institute, 2013).

Results filed as inconclusive are left out. Calls of active or inactive are those of the source.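 How the source made its calls: active means Compounds that reduce signal, with fitted half-maximal dose at or under twice the top valid tested dose; inconclusive means Poor fit, or flat curve losing 30 to 70% of signal; inactive means Potency past limit, flat within 30%, or opposite direction.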

A short description of the first assay: viability loss in HEK293T cells – cell-based, ATP luminescence, cherry-pick samples, cytotoxicity control, dose response (AID 687005). The conditions noted are these: HEK293T viability, ATP luminescence (CellTiter-Glo), 48 h; at 23.5 µM (top of the series). On the technique in general: ATP-based viability assays read luminescence as a measure of living cells.
Take `CC(C)NC(=O)Nc1ccc2c(c1)CC(=O)N([C@H](C)CO)C[C@H](C)[C@H](CN(C)S(=O)(=O)c1ccc(Cl)cc1)O2`: the activity change, negative = cytotoxicity is 39.4% (inactive).
For `COC(=O)C1=C(C)N(Cc2ccccc2)C(=S)NC1c1ccc(Br)cc1` (centres undefined), the activity change, negative = cytotoxicity is -9.89% (inactive).
Still for that read-out and setting: the same measure for `COCC(=O)N1C[C@H](C)[C@@H](OC)CN(C)C(=O)c2ccc(NS(C)(=O)=O)cc2OC[C@@H]1C`: 17.4% (inactive); for `C[C@@H]1CN([C@@H](C)CO)C(=O)CCCn2nncc2CO[C@H]1CN(C)C(=O)Oc1cccc2ccccc12`: 17.9% (inactive); for `C[C@H](CO)N1C[C@H](C)[C@H](CN(C)Cc2cccc(C(F)(F)F)c2)OCc2cnnn2CCCC1=O`: 0.8% (inactive).
`C[C@H]1CN([C@@H](C)CO)C(=O)c2cc(NC(=O)Nc3ccc(F)cc3)ccc2O[C@@H]1CN(C)S(C)(=O)=O`: the activity change, negative = cytotoxicity was 2.53% (inactive).
Take `COC(=O)C1=C(C)N(Cc2ccccc2)C(=S)N[C@H]1c1ccc(Br)cc1`: the activity change, negative = cytotoxicity is 13.4% (inactive).
The same measure, in the same setting: the same measure for `C[C@@H]1CN([C@H](C)CO)C(=O)Cc2cc(NC(=O)Nc3cccc4ccccc34)ccc2O[C@@H]1CN(C)Cc1ccc(C(=O)O)cc1`: -26.3% (inactive).
Same read-out and setting: then `C[C@@H]1CN([C@H](C)CO)C(=O)c2cc(NS(=O)(=O)c3cn(C)cn3)ccc2O[C@H]1CN(C)C(=O)Nc1cccc2ccccc12`, with 17.8% (inactive).

Still in this assay, the particulars now being: HEK293T viability, ATP luminescence (CellTiter-Glo), 48 h; at 26 µM (top of the series).
With `C[C@H]1CN([C@@H](C)CO)C(=O)c2cc(C#CC3(O)CCCC3)cnc2O[C@@H]1CN(C)Cc1cccnc1`, the activity change, negative = cytotoxicity is 13.8% (inactive).
Same read-out and setting: the same measure for `C[C@@H](O)C#Cc1ccc([C@@H]2[C@H]3CN(CC4CC4)CCCCN3[C@H]2CO)cc1`: 34.5% (inactive); for `Fc1cccc(CCN2C(=S)NC[C@@H]2Cc2ccccc2)c1`: -28.1% (inactive); for `CCC(=O)N(C)C[C@@H]1Oc2cc(C#CC(C)(C)O)ccc2S(=O)(=O)N([C@@H](C)CO)C[C@H]1C`: -26.1% (inactive).
Same read-out and setting: the same measure for `CC=Cc1ccc2n(c1=O)C[C@H]1[C@H](CO)[C@@H](C(=O)N3CCc4ccccc4C3)N(C(=O)C3CC3)[C@@H]21` (mixture of isomers): -9.72% (inactive).
Still for that read-out and setting: the same measure for `C[C@H]1CCCCO[C@H](CN(C)C(=O)c2ccncc2)[C@@H](C)CN([C@@H](C)CO)C(=O)c2cc(NC(=O)Cc3ccccc3)ccc2O1`: -3.36% (inactive); for `CN1[C@H](C(=O)N2CCc3ccccc3C2)[C@@H](CO)[C@@H]2Cn3c(ccc(-c4cccnc4)c3=O)[C@@H]21`: 7.82% (inactive); for `C[C@@H]1CN([C@@H](C)CO)C(=O)c2cc(N(C)C)ccc2O[C@@H]1CN(C)C(=O)Nc1ccc(C(F)(F)F)cc1`: -29.4% (inactive).
Turning to `O=C(c1cccc(F)c1)N1C[C@H]2[C@@H](c3ccccc31)[C@@H](CO)N2Cc1cocn1`, the activity change, negative = cytotoxicity was -0.298% (inactive).
The same measure, in the same setting: the same measure for `C[C@@H]1CN([C@H](C)CO)C(=O)c2cc(NC(=O)Nc3cccc4ccccc34)ccc2O[C@@H]1CN(C)C(=O)Nc1ccccc1`: -5.06% (inactive).
On the same count and under the same terms, then `O=C(NCCN1CCCCC1)[C@@H]1N[C@@H]2c3ccc(-c4ccncc4)c(=O)n3C[C@@H]2[C@H]1CO`, with -26.2% (inactive); and `CNC[C@@H]1Oc2cc(Br)ccc2S(=O)(=O)N([C@H](C)CO)C[C@H]1C`, with 28.3% (inactive).
The same measure, in the same setting: then `CCCC(=O)Nc1ccc2c(c1)OC[C@H](C)N(Cc1ccccn1)C[C@H](C)[C@H](OC)CN(C)C2=O`, with 16.2% (inactive); and `COc1ccccc1NC(=S)NCc1ccc(Cl)cc1`, with -4.64% (inactive).
As for `CCCNC(=O)N1C[C@@H](O)COC[C@H]2O[C@H](CC(=O)N3CCN(C)CC3)CC[C@@H]21`, the activity change, negative = cytotoxicity was -7.83% (inactive).
Same read-out and setting: the same measure for `O=C(c1cccnc1)N1C[C@H]2[C@@H](c3ccccc31)[C@@H](CO)N2C(=O)Nc1ccc(F)cc1`: -19.7% (inactive); for `COc1cccc(S(=O)(=O)N(C)C[C@@H]2Oc3ncc(-c4cccc(F)c4)cc3C(=O)N([C@H](C)CO)C[C@@H]2C)c1`: -18.4% (inactive); for `CNC(=O)C[C@H]1CC[C@H]2[C@H](COc3ccc(NC(=O)Nc4ccccc4)cc3C(=O)N2C)O1`: -20.5% (inactive).
With `O=C(Nc1ccccc1)N[C@@H]1CC[C@@H](CCNC(=O)c2ccccc2F)O[C@H]1CO`, the activity change, negative = cytotoxicity is -29.3% (inactive).
As for `O=C(C[C@H]1C[C@@H]2c3cc(NC(=O)c4cccnc4)ccc3O[C@@H]2[C@@H](CO)O1)NCCc1ccccc1`, the activity change, negative = cytotoxicity is -44.8% (inactive).
Still for that read-out and setting: the same measure for `COc1ccc(NC(=S)NCc2ccc(Cl)cc2)c(OC)c1`: 0.916% (inactive).
The same measure, in the same setting: the same measure for `C[C@@H]1CN([C@H](C)CO)C(=O)c2cc(/C=C/c3ccccc3)cnc2O[C@@H]1CN(C)S(C)(=O)=O`: -0.658% (inactive); for `COc1cccc(S(=O)(=O)N2C[C@@H](O)COC[C@H]3O[C@H](CC(=O)N4CCN(C)CC4)CC[C@@H]32)c1`: -1.64% (inactive).
The same measure, in the same setting: the same measure for `C[C@@H]1CCCCO[C@@H](CN(C)S(=O)(=O)c2cccs2)[C@H](C)CN([C@@H](C)CO)C(=O)c2cc(NC(=O)CCC(F)(F)F)ccc2O1`: -7.43% (inactive); for `CC(C)NC(=O)Nc1ccc2c(c1)C(=O)N([C@@H](C)CO)C[C@@H](C)[C@@H](CN(C)C(=O)c1ccncc1)OCCCC[C@@H](C)O2`: -15.2% (inactive).
`CC1=C(C(=O)OCc2ccccc2)C(c2ccccc2)NC(=O)N1` (centres undefined): the activity change, negative = cytotoxicity was 13.2% (inactive).
The same measure, in the same setting: then `Cc1noc(C)c1NC(=O)Nc1ccc2c(c1)C(=O)N([C@@H](C)CO)C[C@H](C)[C@H](CN(C)CC1CCCCC1)O2`, with -11.6% (inactive); and `COCC(=O)N1C[C@H](C)[C@H](OC)CN(C)C(=O)c2ccc(NC(=O)NC(C)C)cc2OC[C@@H]1C`, with 37.2% (inactive); and `O=C(C[C@H]1CC[C@H]2[C@@H](COC[C@@H](O)CN2C(=O)c2ccc(F)cc2)O1)N1CCOCC1`, with -14.1% (inactive).
Still for that read-out and setting: the same measure for `C[C@H](CO)N1C[C@H](C)[C@@H](CN(C)C(=O)Nc2cccc3ccccc23)Oc2c(cccc2N(C)C)C1=O`: 49.5% (inactive).
The same measure, in the same setting: then `CCCNC(C)C(=O)Nc1ccccc1C` (centres undefined), with -25.6% (inactive); and `C[C@H](CO)N1C[C@H](C)[C@H](CN(C)Cc2ccccc2)OCCCC[C@H](C)Oc2ccc(NS(=O)(=O)c3cccs3)cc2C1=O`, with -20.5% (inactive).
Regarding `Cc1ccc(S(=O)(=O)Nc2ccc3c(c2)C(=O)N([C@H](C)CO)C[C@H](C)[C@@H](CN(C)Cc2ccccc2)O3)cc1`, the activity change, negative = cytotoxicity was 43.1% (inactive).
As for `C[C@@H]1CN([C@H](C)CO)C(=O)c2cccc(NC(=O)C3CC3)c2O[C@H]1CN(C)Cc1ccc(C(=O)O)cc1`, the activity change, negative = cytotoxicity was -12.7% (inactive).
Consider `C[C@H](O)C#Cc1cnc2c(c1)C(=O)N([C@@H](C)CO)C[C@@H](C)[C@@H](CN(C)C(=O)Cc1ccncc1)O2`, for which the activity change, negative = cytotoxicity was 0.451% (inactive).
`C[C@@H]1CN([C@@H](C)CO)C(=O)c2cc(C3=CCCCC3)cnc2O[C@H]1CN(C)C(=O)Cc1cccnc1`: the activity change, negative = cytotoxicity was -18.3% (inactive).
On the same count and under the same terms, then `O=C(CN1CCOCC1)N1CC[C@@H]2[C@@H](CO)Nc3ccc(-c4ccccc4F)cc3[C@@H]21`, with 29% (inactive); and `CCNC(=O)Nc1ccc2c(c1)C(=O)N(C)[C@H]1CC[C@H](CC(=O)Nc3ccccc3F)O[C@@H]1CO2`, with 46.5% (inactive).
Same read-out and setting: then `C[C@H]1CN([C@@H](C)CO)C(=O)Cc2cc(NS(C)(=O)=O)ccc2O[C@@H]1CN(C)Cc1ccc(Cl)c(Cl)c1`, with 11.7% (inactive).
Still for that read-out and setting: the same measure for `C[C@H](O)C#Cc1ccc2c(c1)O[C@H](CN(C)C(=O)C1CCCCC1)[C@H](C)CN([C@@H](C)CO)S2(=O)=O`: 34.3% (inactive); for `O=C(NC[C@@H]1[C@H](c2ccccc2)[C@@H](CO)N1C(=O)Cc1cccnc1)C1CCC1`: 8.39% (inactive); for `C[C@@H]1CN([C@@H](C)CO)C(=O)c2cccc(NS(C)(=O)=O)c2O[C@@H]1CN(C)C(=O)Nc1ccc2c(c1)OCO2`: -20.4% (inactive).
As to `C[C@H]1CN([C@@H](C)CO)C(=O)c2cccc(NS(C)(=O)=O)c2O[C@H]1CN(C)C(=O)Nc1ccc2c(c1)OCO2`, the activity change, negative = cytotoxicity is 20.3% (inactive).
The same measure, in the same setting: then `CCC(=O)Nc1ccc2c(c1)C(=O)N(C)C[C@@H](OC)[C@H](C)CN[C@@H](C)CO2`, with 4.18% (inactive); and `C[C@H](CO)N1C[C@H](C)[C@H](CN(C)Cc2cccnc2)Oc2ncc(C#CC3(O)CCCC3)cc2C1=O`, with -14.5% (inactive).
Regarding `Cc1c(C(=O)NC(=S)Nc2ccccc2N2CCCC2)cccc1[N+](=O)[O-]`, the activity change, negative = cytotoxicity was -4.96% (inactive).
For the molecule `C[C@H](CO)N1C[C@H](C)[C@@H](CN(C)S(=O)(=O)c2cn(C)cn2)Oc2c(NC(=O)Nc3ccccc3)cccc2C1=O`, the activity change, negative = cytotoxicity was 1.19% (inactive).
The same measure, in the same setting: the same measure for `CC(C)NC(=O)N[C@H]1CC[C@@H](CCNC(=O)C2CC2)O[C@H]1CO`: 6.21% (inactive).

The assay is the same for the next values; noted with them: HEK293T viability, ATP luminescence (CellTiter-Glo), 48 h; at 35 µM (top of the series).
Take `O=C(NC(=S)NCC1COc2ccccc2O1)c1ccc(Cl)cc1` (centres undefined): the activity change, negative = cytotoxicity was -9.32% (inactive).

The same assay, now with this note: HEK293T viability, ATP luminescence (CellTiter-Glo), 48 h; at 38 µM (top of the series).
In the case of `CCCC(C)(C)C(=O)N1CCC1(C)C(=O)Nc1ccc(C)cc1` (centres undefined), the activity change, negative = cytotoxicity was -11.3% (inactive).
